According to patent US9333208B2, “HCN inhibitors affecting ganglion cell function and visual function” (Allergan, Inc., priority 2013, dated 2016):

Tests used:
[1] = tested on: HCN channel current (Ih); test: HCN channel current (Ih) measurement, voltage clamp of retinal ganglion cells; type: cell-based, Brown Norway rats; details: different concentrations; clamped at -60 mV, stepped to -80, -100 and -120 mV for 1 second; FIG. 11
[2] = tested on: retinal ganglion cells; test: Retinal ganglion cell input resistance measurement, voltage clamp; type: cell-based, Brown Norway rats; details: different concentrations; clamped at -60 mV, stepped to -55 mV; FIG. 12

## COc1cc2c(cc1OC)CC(=O)N(CCCN(C)C[C@H]1Cc3cc(OC)c(OC)cc31)CC2 [Ivabradine, 3-[3-({[(7S)-3,4-dimethoxybicyclo[4.2.0]octa-1,3,5-trien-7-yl]methyl}(methyl)amino)propyl]-7,8-dimethoxy-2,3,4,5-tetrahydro-1H-3-benzazepin-2-one]
[1]
  retinal ganglion cell HCN (Ih) mediated current: statistically significant decrease
[2]
  retinal ganglion cell input resistance: increased with every concentration of Ivabradine in a linear manner
